For test [1], the target named is Glycogen synthase kinase-3 beta (Homo sapiens, UniProt P49841). Put plainly: TR-FRET Assay. In outline: (§1)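 30 min preinc w/ cpd in assay buffer → kinase rxn → EDTA quench → add detection mix (40 nM SA-d2, 2 nM Tb-pSer641 Ab) → TR-FRET read.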
On the technique in general: TR-FRET usually uses a lanthanide donor and a delayed reading to cut background.

Test [2] deals with Glycogen synthase kinase-3 alpha (Homo sapiens, UniProt P49840). The experiment in a line: TR-FRET Assay. In outline:
as §1

Values joined by “and” are separate entries in the source; they are usually repeats but may differ in a detail not shown here. Equal entries are not always repeated. Where only a bound is given, the exact number is not on record here.

Sequence of Glycogen synthase kinase-3 beta (P49841 whole entry): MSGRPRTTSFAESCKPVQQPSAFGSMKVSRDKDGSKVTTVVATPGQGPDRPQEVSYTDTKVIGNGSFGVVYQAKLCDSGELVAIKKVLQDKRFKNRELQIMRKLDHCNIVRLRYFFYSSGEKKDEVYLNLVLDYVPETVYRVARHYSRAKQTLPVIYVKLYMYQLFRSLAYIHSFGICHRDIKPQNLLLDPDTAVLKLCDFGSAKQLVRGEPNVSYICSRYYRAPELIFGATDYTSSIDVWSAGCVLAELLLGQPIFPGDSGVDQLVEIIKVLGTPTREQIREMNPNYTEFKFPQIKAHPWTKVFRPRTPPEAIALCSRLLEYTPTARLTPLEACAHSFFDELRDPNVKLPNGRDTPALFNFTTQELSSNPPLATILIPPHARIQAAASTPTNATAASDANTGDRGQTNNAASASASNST
Sequence of Glycogen synthase kinase-3 alpha (P49840 whole entry): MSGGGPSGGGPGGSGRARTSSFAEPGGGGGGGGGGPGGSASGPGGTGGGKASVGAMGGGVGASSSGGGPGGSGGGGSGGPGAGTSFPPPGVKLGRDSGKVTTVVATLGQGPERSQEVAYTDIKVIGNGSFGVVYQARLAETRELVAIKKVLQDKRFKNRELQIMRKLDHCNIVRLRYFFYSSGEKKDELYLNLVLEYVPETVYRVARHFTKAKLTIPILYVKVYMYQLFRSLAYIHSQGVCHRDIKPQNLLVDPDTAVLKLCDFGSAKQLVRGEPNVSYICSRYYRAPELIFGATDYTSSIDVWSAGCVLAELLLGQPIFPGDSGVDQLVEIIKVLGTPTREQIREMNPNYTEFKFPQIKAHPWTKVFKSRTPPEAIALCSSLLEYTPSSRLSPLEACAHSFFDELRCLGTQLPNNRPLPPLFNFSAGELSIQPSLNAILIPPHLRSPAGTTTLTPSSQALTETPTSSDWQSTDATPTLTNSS

Turning to `CCC1(c2cccc(C(F)(F)C(F)(F)F)c2)C2=CN=NC2NC2=C1C(=O)CC(C)(C)C2` (stereo not drawn) [US20250313563, Compound 948615], the half-inhibitory concentration (IC50) in test [1] and in test [2] was less than 100 nM throughout.

As to `CCc1cnccc1-c1cccc([C@@]2(CC)C3=CN=NC3NC3=C2C(=O)NC(C)(C)C3)c1` (stereo partly drawn) [US20250313563, Compound 948639], the IC50 (commonly the concentration at which inhibition is half-maximal) was 100 to 1000 nM in test [1] and less than 100 nM in test [2].

`CC[C@]1(c2cccc(-c3ccncc3C)c2)C2=CN=NC2NC2=C1C(=O)N[C@]1(CCOC1)C2` (stereo partly drawn) [US20250313563, Compound 948640]: the IC50 in test [1] and in test [2] was less than 100 nM throughout.

Consider `CC[C@]1(c2cccc(-c3ccncc3C3CC3)c2)C2=CN=NC2NC2=C1C(=O)NC(C)(C)C2` (stereo partly drawn) [US20250313563, Compound 948642], for which the IC50 in test [1] is 1000 to 5000 nM; in test [2], 100 to 1000 nM.

Consider `CC[C@]1(c2cccc(-c3ccncc3OC3CC3)c2)C2=CN=NC2NC2=C1C(=O)NC(C)(C)C2` (stereo partly drawn) [US20250313563, Compound 948643], for which the half-maximal inhibitory concentration (IC50) in test [1] and in test [2] was more than 5000 nM in each case.

For the compound `CC[C@@]1(c2cccc(-c3ccncc3C)c2)C2=CN=NC2NC2=C1C(=O)N[C@@]1(CCOC1)C2` (stereo partly drawn) [US20250313563, Compound 948644], the concentration for half-maximal inhibition (IC50) in test [1] and in test [2] was less than 100 nM in each case.

As to `CC[C@]1(c2cccc(-c3ccnc4cc(Cl)c(C)cc34)c2)C2=CN=NC2NC2=C1C(=O)NC(C)(C)C2` (stereo partly drawn) [US20250313563, Compound 948645], the IC50 in test [1] was more than 5000 nM; in test [2], 100 to 1000 nM.

Consider `CC[C@]1(c2cccc(-c3ccnc(N4CCCCC4)c3)c2)C2=CN=NC2NC2=C1C(=O)NC(C)(C)C2` (stereo partly drawn) [US20250313563, Compound 948646], for which the values for the half-inhibitory concentration (IC50) in test [1] and in test [2] were more than 5000 nM and 1000 to 5000 nM, respectively.

For the compound `CC[C@]1(c2cccc(-c3cc(OC)nc4ccccc34)c2)C2=CN=NC2NC2=C1C(=O)NC(C)(C)C2` (stereo partly drawn) [US20250313563, Compound 948647], the IC50 in test [1] and in test [2] was more than 5000 nM each time.

`CC[C@]1(c2cccc(C3=C4CC=CC(Cl)=C4N=CC3)c2)C2=CN=NC2NC2=C1C(=O)NC(C)(C)C2` (stereo partly drawn) [US20250313563, Compound 948650]: the half-inhibitory concentration (IC50) in test [1] and in test [2] was more than 5000 nM each time.

As for `CC[C@@]1(c2cccc(-c3c4c(nn3C)CCCC4)c2)C2=CN=NC2NC2=C1C(=O)NC(C)(C)C2` (stereo partly drawn) [US20250313563, Compound 948652], the figures for the IC50 in test [1] and in test [2] were more than 5000 nM and 100 to 1000 nM, respectively.

For the compound `CC[C@]1(c2cccc(-c3c4c(cn3C)CCCC4)c2)C2=CN=NC2NC2=C1C(=O)NC(C)(C)C2` (stereo partly drawn) [US20250313563, Compound 948655], the figures for the IC50 in test [1] and in test [2] were 100 to 1000 nM and less than 100 nM, respectively.

Regarding `CC[C@]1(c2cccc(-c3ccnc4ccc(C)cc34)c2)C2=CN=NC2NC2=C1C(=O)NC(C)(C)C2` (stereo partly drawn) [US20250313563, Compound 948658], the IC50 in test [1] and in test [2] was more than 5000 nM throughout.

Consider `CC[C@]1(c2cccc(-c3ccnc(C)c3)c2)C2=CN=NC2NC2=C1C(=O)NC1(CCCC1)C2` (stereo partly drawn) [US20250313563, Compound 948660], for which the IC50 in test [1] and in test [2] was less than 100 nM throughout.

`CC[C@]1(c2cccc(C3=C4CC=C(OC)C=C4N=CC3)c2)C2=CN=NC2NC2=C1C(=O)NC(C)(C)C2` (stereo partly drawn) [US20250313563, Compound 948661]: the IC50 is 100 to 1000 nM in test [1] and less than 100 nM in test [2].

With `CC[C@]1(c2cccc(-c3ccncc3C)c2)C2=CN=NC2NC2=C1C(=O)N[C@@]1(CCOC1)C2` (stereo partly drawn) [US20250313563, Compound 948662], the half-inhibitory concentration (IC50) is more than 5000 nM in test [1] and 1000 to 5000 nM in test [2].

On to `CC[C@]1(c2cccc(-c3ccnc4cc(F)c(F)cc34)c2)C2=CN=NC2NC2=C1C(=O)NC(C)(C)C2` (stereo partly drawn) [US20250313563, Compound 948664], for which the IC50 in test [1] was more than 5000 nM; in test [2] it was 1000 to 5000 nM.

As for `CCC1(c2cccc(-c3cc(C)ncc3F)c2)C2=C(CC(C)(C)NC2=O)NC2N=NC(C)=C21` (stereo not drawn) [US20250313563, Compound 948761], the IC50 in test [1] and in test [2] was less than 100 nM each time.

On to `CCC1(c2cccc(-c3cc(C)ncc3F)c2)C2=C(CC(C)(C)NC2=O)NC2N=NC(C(F)(F)F)=C21` (stereo not drawn) [US20250313563, Compound 948762], for which the IC50 in test [1] and in test [2] was less than 100 nM throughout.

As for `CCC1(c2cccc(OC)c2)C2=C(CC(C)(C)NC2=O)NC2N=NC(C)=C21` (stereo not drawn) [US20250313563, Compound 948763], the IC50 is 100 to 1000 nM in test [1] and less than 100 nM in test [2].

As to `CCC1(c2cccc(Oc3ncccn3)c2)C2=CN=NC2NC2=C1C(=O)NC(C)(C)C2` (stereo not drawn) [US20250313563, Compound 948764], the IC50 was 100 to 1000 nM in test [1] and less than 100 nM in test [2].

In the case of `CCC1(c2cccc(-c3cc(C)nnc3C)c2)C2=C(CC(C)(C)NC2=O)NC2N=NC(C)=C21` (stereo not drawn) [US20250313563, Compound 948765], the IC50 in test [1] and in test [2] was less than 100 nM throughout.

For `CCC1(c2cccc(-c3cnn(C)c3)c2)C2=C(CC(C)(C)NC2=O)NC2N=NC(Cl)=C21` (stereo not drawn) [US20250313563, Compound 948767], the IC50 in test [1] and in test [2] was less than 100 nM each time.

Turning to `CCC1(c2cccc(-c3cn(C)nc3C)c2)C2=C(CC(C)(C)NC2=O)NC2N=NC(Cl)=C21` (stereo not drawn) [US20250313563, Compound 948768], the IC50 in test [1] and in test [2] was less than 100 nM in each case.

As for `CC[C@]1(c2cccc(-c3ccnc4c3CCC4)c2)C2=C(CC(C)(C)NC2=O)NC2N=NC(C(F)(F)F)=C21` (stereo partly drawn) [US20250313563, Compound 948769], the IC50 in test [1] and in test [2] was 100 to 1000 nM throughout.

In the case of `CC[C@]1(c2cccc(-c3ccncc3F)c2)C2=C(CC(C)(C)NC2=O)NC2N=NC(C(F)(F)F)=C21` (stereo partly drawn) [US20250313563, Compound 948770], the IC50 in test [1] and in test [2] was 100 to 1000 nM throughout.

Regarding `CC[C@]1(c2cccc(S(=O)(=O)C3CC3)c2)C2=C(CC(C)(C)NC2=O)NC2=C1C(C(F)(F)F)N=N2` (stereo partly drawn) [US20250313563, Compound 948771], the IC50 in test [1] is < 100 nM and 100 to 1000 nM; in test [2], less than 100 nM.

In the case of `CC[C@]1(c2cccc(-c3cnn4c3CCCC4)c2)C2=C(CC(C)(C)NC2=O)NC2N=NC(C(F)(F)F)=C21` (stereo partly drawn) [US20250313563, Compound 948772], the IC50 in test [1] and in test [2] was 100 to 1000 nM each time.

Consider `CC[C@@]1(c2cccc(-c3ccnc(C)c3)c2)C2=C(CC(C)(C)NC2=O)NC2N=NC(C(F)(F)F)=C21` (stereo partly drawn) [US20250313563, Compound 948774], for which the IC50 in test [1] and in test [2] was less than 100 nM each time.

For `CC[C@@]1(c2cccc(-c3cnn4c3CCCC4)c2)C2=C(CC(C)(C)NC2=O)NC2N=NC(C(F)(F)F)=C21` (stereo partly drawn) [US20250313563, Compound 948775], the IC50 in test [1] was < 100 nM and 100 to 1000 nM; in test [2], less than 100 nM.

`CC[C@@]1(c2cccc(S(=O)(=O)C3CC3)c2)C2=C(CC(C)(C)NC2=O)NC2N=NC(C(F)(F)F)=C21` (stereo partly drawn) [US20250313563, Compound 948776]: the IC50 in test [1] and in test [2] was 100 to 1000 nM in each case.

`CC[C@@]1(c2cccc(-c3ccncc3F)c2)C2=C(CC(C)(C)NC2=O)NC2N=NC(C(F)(F)F)=C21` (stereo partly drawn) [US20250313563, Compound 948777]: the IC50 in test [1] and in test [2] was less than 100 nM throughout.

Turning to `CC[C@@]1(c2cccc(-c3ccnc4c3CCC4)c2)C2=C(CC(C)(C)NC2=O)NC2N=NC(C(F)(F)F)=C21` (stereo partly drawn) [US20250313563, Compound 948778], the IC50 in test [1] is < 100 nM and 1000 to 5000 nM; in test [2] it was < 100 nM and 100 to 1000 nM.

Take `CCC1(c2cccc(C3CN(C(C)=O)C3)c2)C2=CN=NC2NC2=C1C(=O)CC(C)(C)C2` (stereo not drawn) [US20250313563, Compound 948779]: the IC50 in test [1] was more than 5000 nM; in test [2], 1000 to 5000 nM.

For the compound `CCC1(c2cccc(-c3ccnc(C)c3OC)c2)C2=CN=NC2NC2=C1C(=O)NC(C)(C)C2` (stereo not drawn) [US20250313563, Compound 948794], the figures for the IC50 in test [1] and in test [2] were 100 to 1000 nM and less than 100 nM, respectively.

Regarding `CC[C@@]1(c2cccc(-c3c(C)cncc3C)c2)C2=CN=NC2NC2=C1C(=O)NC(C)(C)C2` (stereo partly drawn) [US20250313563, Compound 948812], the IC50 in test [1] was < 100 nM and 1000 to 5000 nM; in test [2], < 100 nM and 100 to 1000 nM.

With `CC[C@]1(c2cccc(C3=C4CC=CC(F)=C4N=CC3)c2)C2=CN=NC2NC2=C1C(=O)NC(C)(C)C2` (stereo partly drawn) [US20250313563, Compound 948813], the IC50 in test [1] was more than 5000 nM; in test [2] it was 1000 to 5000 nM.

For `CC[C@]1(c2cccc(-c3cnn(C)c3C#N)c2)C2=CN=NC2NC2=C1C(=O)NC(C)(C)C2` (stereo partly drawn) [US20250313563, Compound 948814], the IC50 in test [1] and in test [2] was more than 5000 nM in each case.

As to `CC[C@@]1(c2cccc(-c3cnn(C)c3C(F)(F)F)c2)C2=CN=NC2NC2=C1C(=O)NC(C)(C)C2` (stereo partly drawn) [US20250313563, Compound 948815], the IC50 in test [1] is 100 to 1000 nM and > 5000 nM; in test [2] it was < 100 nM and 100 to 1000 nM.

Consider `CC[C@]1(c2cccc(-c3cnn(C(F)F)c3)c2)C2=CN=NC2NC2=C1C(=O)NC(C)(C)C2` (stereo partly drawn) [US20250313563, Compound 948816], for which the half-inhibitory concentration (IC50) in test [1] and in test [2] was more than 5000 nM in each case.

Turning to `CC[C@]1(c2cccc(-c3ccnc4c3cnn4C)c2)C2=CN=NC2NC2=C1C(=O)NC(C)(C)C2` (stereo partly drawn) [US20250313563, Compound 948817], the IC50 in test [1] and in test [2] was more than 5000 nM in each case.

With `CC[C@]1(c2cccc(-c3ccnc4cnccc34)c2)C2=CN=NC2NC2=C1C(=O)NC(C)(C)C2` (stereo partly drawn) [US20250313563, Compound 948819], the IC50 is more than 5000 nM in test [1] and 1000 to 5000 nM in test [2].

In the case of `CC[C@]1(c2cccc(-c3c(Cl)cncc3Cl)c2)C2=CN=NC2NC2=C1C(=O)NC(C)(C)C2` (stereo partly drawn) [US20250313563, Compound 948824], the IC50 in test [1] was more than 5000 nM; in test [2], 1000 to 5000 nM.

As to `CC[C@@]1(c2cccc(-c3ccnc(N4CCOCC4)c3)c2)C2=CN=NC2NC2=C1C(=O)NC(C)(C)C2` (stereo partly drawn) [US20250313563, Compound 948825], the IC50 in test [1] is 1000 to 5000 nM; in test [2], 100 to 1000 nM.
